{
  "source": "patent US20150306167A1",
  "about": "“ALPINIA SPP. EXTRACTS FOR TREATING IRRITABLE BOWEL SYNDROME” (MEDICAL AND PHARMACEUTICAL INDUSTRY TECHNOLOGY AND …, priority 2012, published 2015)",
  "key": {"[1]": {"system": "5-HTP induced diarrhea and/or abnormal defecation", "test": "5-HTP induced diarrhea and/or abnormal defecation animal model", "type": "in vivo, Male ICR mice", "conditions": "for 5-HTP induced diarrhea (diarrhea score): FIG. 12A; for 5-HTP induced diarrhea (diarrhea score) / number of stools excreted: N=5 mice/group; for number of stools excreted: FIG. 12B, in 30 min; for anti-abnormal defecation effect / activity: purified compounds from Alpinia oxyphylla", "procedure": "Animal Model for Evaluating 5-HTP Induced Diarrhea and/or Abnormal Defecation\nMale ICR mice (BioLASCO Taiwan Co., Ltd., Taiwan) were kept in an air-conditioned animal shelter at room temperature of 22° C. to 24° C. with controlled level of humidity (40% to 50%) in a 12-hour light-dark cycle. Each mouse weighed between 30 to 34 g in the beginning of the test. Tap water and standard laboratory rodent chow were provided ad libitum.\n[…], and each mice in the test group was given two doses of the Alpinia spp. extract of this invention (i.e., 500 mg/kg, 1,000 mg/kg, or 2,000 mg/kg) orally on day 1, and a third dose on day 2; and one dose of 5-HTP (i.p., 10 mg/kg) just 60 minutes after the administration of the third dose of the Alpinia spp. extract. In some occasions, the Alpinia spp. extracts of this invention were given intraperitoneally instead of orally. For comparison purpose, loperamide hydrochloride (oral; 2 mg/kg), ondansteron hydrochloride (oral; 2 mg/kg) or graniserton hydrochloride (oral; 2 mg/kg) were given once respectively to the control animals just 30 minutes prior to the administration of 5-HTP. Thirty minutes after 5-HTP injection, defecation of each animal was observed, with number of stools excreted for 30 min and diarrhea score respectively recorded accordingly. The diarrhea score was designed to describe consistency of stool using an arbitrary score scale from 0 to 3, with 0 representing solid form of stool, 1 representing loose form of stool, 2 representing partially liquid-like form of stool, and 3 representing watery form of stool.\n(§1) All results are expressed as means±STD; n refers to animals in each group. Differences between animals of each group were compared by one-way\n(§2) ANOVA followed by Dunnett's t test. A p value less than or equal to 0.05 was considered to be statistically significant."}, "IBS patients": {"system": "IBS patients", "conditions": "reported, cited from earlier work"}, "[2]": {"system": "5-HTP induced visceral hypersensitivity (AWR)", "test": "Visceral hypersensitivity by behavioral response, AWR score after 5-HTP", "type": "in vivo, Male Sprague-Dawley rats", "conditions": "for AWR score: body arching and lifting of pelvic structures / AWR score: lifting abdomen / AWR scores compared with control rats: 5-HTP rats; for anti-abdominal pain activity (or anti-visceral hypersensitivity): purified compounds from Alpinia oxyphylla", "procedure": "Animal Model for Evaluating Chronic Visceral Hypersensitivity by Measuring […] Withdrawal Reflex (AWR)\nIn this model, behavioral response was studied by measuring the AWR, which is an involuntary motor reflex similar to visceromotor reflex. The AWR was graded with the intensity of stimulus.\nMale Sprague-Dawley rats (BioLASCO Taiwan Co., Ltd., Taiwan) were kept in an air-conditioned animal shelter at room temperature of 22° C. to 24° C. with controlled level of humidity (40% to 50%) in a 12-hour light-dark cycle. Each rat weighed between 200 to 350 g in the beginning of the test. Tap water and standard laboratory rodent chow were provided ad libitum. Unless specifically indicated, each group included 6 rats, and experiments were conducted without fasting the animals. The plant extracts and positive control drugs were given to the animals either orally or intraperitoneally.\nBehavioral studies were assessed in according to previously described procedures (AL-CHAER et al., Gastroenterology 2000, 119:1276-1285). Briefly, the rats were then housed in small Lucite cubicles (20×8×8 cm) on an elevated Plexiglas platform and allowed to wake up and adapt (1 hr). Animal was injected subcutaneously with a dose of 5-HTP (10 mg/kg) to induce visceral hypersensitivity, and behavioral response was studied by measuring the AWR. Measurement of the AWR consisted of visual observation of the animal response by blinded observers and assignments of an AWR score: 0, no behavioral response; 1, brief head movement followed by immobility; 2, mild contraction of abdominal muscles without lifting the abdomen off the platform; 3, strong contraction of the abdominal muscles and lifting abdomen off the platform; 4, severe contraction of the abdominal muscle manifested by body arching and lifting of pelvic structures. Behavioral measurements were repeated by two different blinded observers.\nas §1, §2"}},
  "data": [
    {"smiles": "CC(C)[C@@H]1CCC(=O)C2=C1[C@H](O)[C@](C)(O)CC2", "note": "[PDC-2454, Oxyphellenodiol A]", "values": [
      {"measurement": "5-HTP induced diarrhea (diarrhea score)", "setting": "[1]", "value": "capable of suppressing 5-HTP induced diarrhea"},
      {"measurement": "number of stools excreted", "setting": "[1]", "value": "reducing the number of stools excreted"},
      {"measurement": "anti-abnormal defecation effect / activity", "setting": "[1]", "value": "possess anti-abnormal defecation activity"}
    ]},
    {"smiles": "Cc1[nH]cnc1CN1CCc2c(c3ccccc3n2C)C1=O", "note": "[alosetron]", "values": [
      {"measurement": "IBS patients with improved clinical symptoms", "setting": "IBS patients", "value": "about 50%"},
      {"measurement": "IBS patients with side effects such as constipation and ischemia colitis", "setting": "IBS patients", "value": "30-35%"}
    ]},
    {"smiles": "COc1cc(O)c2c(=O)c(O)c(-c3ccccc3)oc2c1", "note": "[PDC-2524, Isalpinin]", "values": [
      {"measurement": "AWR score: body arching and lifting of pelvic structures", "setting": "[2]; 2.5 mg/kg i.p., Table 3", "value": "2.40 ± 0"},
      {"measurement": "AWR score: lifting abdomen", "setting": "[2]; 2.5 mg/kg i.p., Table 3", "value": "2.27 ± 0.06"},
      {"measurement": "AWR score: body arching and lifting of pelvic structures", "setting": "[2]; 5 mg/kg i.p., Table 3", "value": "2.10 ± 0"},
      {"measurement": "AWR score: lifting abdomen", "setting": "[2]; 5 mg/kg i.p., Table 3", "value": "1.87 ± 0.06"},
      {"measurement": "AWR score: body arching and lifting of pelvic structures", "setting": "[2]; 10 mg/kg i.p., n = 1, Table 3", "value": 1.60},
      {"measurement": "AWR score: lifting abdomen", "setting": "[2]; 10 mg/kg i.p., n = 1, Table 3", "value": 1.20},
      {"measurement": "AWR scores compared with control rats", "setting": "[2]", "value": "significantly lower"},
      {"measurement": "anti-abdominal pain activity (or anti-visceral hypersensitivity)", "setting": "[2]", "value": "proved to possess anti-abdominal pain activity"}
    ]},
    {"smiles": "C=C(C)[C@]1(O)CC[C@]2(C)CC(=O)C=C(C)[C@H]2C1", "note": "[PDC-2453, 7-epi-teucrenone]", "values": [
      {"measurement": "5-HTP induced diarrhea (diarrhea score)", "setting": "[1]", "value": "capable of suppressing 5-HTP induced diarrhea"},
      {"measurement": "number of stools excreted", "setting": "[1]", "value": "reducing the number of stools excreted"},
      {"measurement": "anti-abnormal defecation effect / activity", "setting": "[1]", "value": "possess anti-abnormal defecation activity"}
    ]},
    {"smiles": "COc1cc(O)c2c(=O)cc(-c3ccccc3)oc2c1", "note": "[PDC-2521, Tectochrysin]", "values": [
      {"measurement": "anti-abnormal defecation effect / activity", "setting": "[1]", "value": "possess anti-abnormal defecation activity"}
    ]},
    {"smiles": "C=C(C)[C@@H]1CC[C@]2(C)CCC(=O)C(C)=C2[C@H]1O", "note": "[PDC-2460, 6-α-hydroxy-7-epi-α-cyperone]", "values": [
      {"measurement": "5-HTP induced diarrhea (diarrhea score)", "setting": "[1]", "value": "capable of suppressing 5-HTP induced diarrhea"},
      {"measurement": "number of stools excreted", "setting": "[1]", "value": "reducing the number of stools excreted"},
      {"measurement": "anti-abnormal defecation effect / activity", "setting": "[1]", "value": "possess anti-abnormal defecation activity"}
    ]},
    {"smiles": "[H]/N=C(/NCCCCC)N/N=C/c1c[nH]c2ccc(OC)cc12", "note": "[tegaserod]", "values": [
      {"measurement": "therapeutic effects on IBS", "setting": "IBS patients", "value": "limited therapeutic effects on IBS"},
      {"measurement": "risk of IBS patients in developing cardiovascular diseases", "setting": "IBS patients; retracted from the market in 2007", "value": "increases significantly"}
    ]},
    {"smiles": "CN1C2CCCC1CC(NC(=O)c1nn(C)c3ccccc13)C2", "note": "(stereo not shown) [Granisetron, granisetron, reference compound]", "values": [
      {"measurement": "AWR score: body arching and lifting of pelvic structures", "setting": "[2]; 100 μg/kg i.p., n = 1, Table 1", "value": 1.90},
      {"measurement": "AWR score: lifting abdomen", "setting": "[2]; 100 μg/kg i.p., n = 1, Table 1", "value": 2.80}
    ]},
    {"smiles": "C=C(C)[C@@]1(O)CC[C@]2(C)CC(=O)C=C(C)[C@H]2C1", "note": "[PDC-2464, Teucrenone]", "values": [
      {"measurement": "AWR score: body arching and lifting of pelvic structures", "setting": "[2]; 5 mg/kg i.p., Table 3", "value": "1.75 ± 0.16"},
      {"measurement": "AWR score: lifting abdomen", "setting": "[2]; 5 mg/kg i.p., Table 3", "value": "1.60 ± 0.11"},
      {"measurement": "AWR scores compared with control rats", "setting": "[2]", "value": "significantly lower"},
      {"measurement": "anti-abdominal pain activity (or anti-visceral hypersensitivity)", "setting": "[2]", "value": "proved to possess anti-abdominal pain activity"},
      {"measurement": "5-HTP induced diarrhea (diarrhea score)", "setting": "[1]", "value": "capable of suppressing 5-HTP induced diarrhea"},
      {"measurement": "number of stools excreted", "setting": "[1]", "value": "reducing the number of stools excreted"},
      {"measurement": "anti-abnormal defecation effect / activity", "setting": "[1]", "value": "possess anti-abnormal defecation activity"}
    ]}
  ]
}
